Results from patent publication US20220089592A1, “IMIDAZO[1,2-A]PYRIDINYL DERIVATIVES AS IRAK4 INHIBITORS” (priority 2019, published 2022).

Columns and labels:
[1] = target: T1, IRAK4 (Homo sapiens, UniProt Q9NWZ3); experiment: 2-hour 1 mM ATP IRAK4 Biochemical assay (as above, but with 100 pM IRAK4 and 1 mM ATP); conditions: IRAK4 MSD BIOCHEMICAL (1 mM ATP) IC50 (μM), 100 pM IRAK4, 2 hours
T1 sequence (Q9NWZ3 1-460): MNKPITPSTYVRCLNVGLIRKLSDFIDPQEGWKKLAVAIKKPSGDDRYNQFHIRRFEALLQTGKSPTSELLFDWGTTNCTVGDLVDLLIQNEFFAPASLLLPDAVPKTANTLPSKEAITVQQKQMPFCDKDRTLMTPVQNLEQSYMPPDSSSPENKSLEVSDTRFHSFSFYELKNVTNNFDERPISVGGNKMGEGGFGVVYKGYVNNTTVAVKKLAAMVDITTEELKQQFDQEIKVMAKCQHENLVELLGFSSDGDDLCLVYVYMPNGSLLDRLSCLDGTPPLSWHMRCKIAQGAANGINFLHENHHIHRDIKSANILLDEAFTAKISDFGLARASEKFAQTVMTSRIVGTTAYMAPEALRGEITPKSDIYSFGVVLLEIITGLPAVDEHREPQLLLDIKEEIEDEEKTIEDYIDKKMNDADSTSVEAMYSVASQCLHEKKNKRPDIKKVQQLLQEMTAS
Procedure, shortened: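 Run with 100 pM IRAK4 and 1 mM ATP for 2 hours, quenched with EDTA pH 8. Phosphorylated biotinylated peptide captured on streptavidin MSD plates and detected with anti-phosphothreonine antibody plus Sulfo-Tag secondary by electrochemiluminescence.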

[2] = target: T1, IRAK4; experiment: 2-hour 10 μM ATP Biochemical Assay (MesoScale Detection format; IRAK4 phosphorylation of biotin labeled IRAK1 activation loop peptide); conditions: IRAK4 MSD BIOCHEMICAL (10 μM ATP) IC50 (μM), 1 nM IRAK4, 2 hours
Procedure, shortened: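 Kinase reaction run 2 h at 10 μM ATP with biotinylated IRAK1 activation-loop peptide, quenched with EDTA. Phospho-peptide captured on streptavidin MSD plates and detected with anti-phosphothreonine rabbit antibody plus Sulfo-Tag anti-rabbit electrochemiluminescence.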

CCOc1cc2nc(C34CC(COC)(C3)C4)cn2cc1NC(=O)c1cccc(C(F)(F)F)n1 [Example 523, N-(7-ethoxy-2-(3-(methoxymethyl)bicyclo[1.1.1]pentan-1-yl)imidazo[1,2-a]pyridin-6-yl)-6-(trifluoromethyl)picolinamide]
IC50 [1]: 0.001 µM | IC50 [2]: 0.001 µM

CCOc1cc2nc(CCCOC)cn2cc1NC(=O)c1cccc(OC)n1 [Example 524, N-(7-ethoxy-2-(3-methoxypropyl)imidazo[1,2-a]pyridin-6-yl)-6-methoxypicolinamide]
IC50 [1]: 0.015 µM | IC50 [2]: 0.004 µM

CC(C)Oc1c(NC(=O)c2cnn3cccnc23)cn2cc(C34COC(C)(C3)C4)nc2c1F [Example 577, N-(8-fluoro-7-isopropoxy-2-(1-methyl-2-oxabicyclo[2.1.1]hexan-4-yl)imidazo[1,2-a]pyridin-6-yl)pyrazolo[1,5-a]pyrimidine-3-carboxamide]
IC50 [1]: 0.001 µM | IC50 [2]: 0.003 µM
